From the NIST ThermoML archive (doi:10.1021/acs.jced.7b00578)
Values joined by “and” are separate entries in the source; they are usually repeats but may differ in a detail not shown here. Equal values may be shown once.

Experiments:
[1] = for vapor or sublimation pressure: Closed cell (Static) method; for Normal melting temperature: DTA
[2] = molar heat capacity at constant pressure; conditions: 101.33 kPa, Extra sensitive DSC
[3] = Molar enthalpy of transition or fusion; conditions: Crystal; DSC

CC1COC(=O)O1 (stereo not given) [4-methyl-1,3-dioxolan-2-one]
Liquid
Conditions	molar heat capacity at constant pressure [J/K/mol]	vapor or sublimation pressure
[1], 278.19 K	–	0.00132 kPa
[1], 278.37 K	–	0.00133 kPa
[1], 278.39 K	–	0.00133 kPa
[1], 283.31 K	–	0.00214 kPa
[1], 283.32 K	–	0.00214 kPa
[1], 288.19 K	–	0.00332 kPa
[1], 288.2 K	–	0.00333 kPa
[1], 288.22 K	–	0.00332 kPa
[1], 293.12 K	–	0.00511 kPa
[1], 293.14 K	–	0.00512 kPa
[1], 293.15 K	–	0.00514 kPa and 0.00511 kPa
[1], 298.1 K	–	0.00778 kPa
[1], 298.11 K	–	0.00778 kPa
[1], 298.12 K	–	0.00777 kPa
[1], 303.01 K	–	0.01158 kPa and 0.01155 kPa
[1], 303.03 K	–	0.01156 kPa
[1], 307.94 K	–	0.01701 kPa and 0.01698 kPa
[1], 307.95 K	–	0.01694 kPa and 0.01696 kPa
[1], 312.97 K	–	0.0247 kPa and 0.02472 kPa
[1], 312.98 K	–	0.02474 kPa
[1], 312.99 K	–	0.02479 kPa
[1], 317.91 K	–	0.03529 kPa
[1], 317.92 K	–	0.0353 kPa and 0.03533 kPa and 0.03536 kPa
[1], 322.9 K	–	0.04993 kPa
[1], 322.92 K	–	0.04996 kPa and 0.05002 kPa and 0.05 kPa
[1], 327.8 K	–	0.06936 kPa
[1], 327.81 K	–	0.06935 kPa and 0.06932 kPa and 0.06938 kPa
[1], 332.89 K	–	0.09634 kPa and 0.09635 kPa
[1], 332.91 K	–	0.09643 kPa
[1], 332.92 K	–	0.09645 kPa
[1], 337.83 K	–	0.1311 kPa
[1], 337.84 K	–	0.1311 kPa and 0.1312 kPa
[1], 337.85 K	–	0.1312 kPa
[1], 342.82 K	–	0.177 kPa
[1], 342.83 K	–	0.1772 kPa
[1], 342.84 K	–	0.1773 kPa and 0.1772 kPa
[1], 347.69 K	–	0.2353 kPa
[1], 347.7 K	–	0.2354 kPa
[1], 352.55 K	–	0.3096 kPa
[1], 352.58 K	–	0.3102 kPa
[1], 352.59 K	–	0.3103 kPa
[1], 357.59 K	–	0.4078 kPa
[1], 357.6 K	–	0.4079 kPa
[1], 362.51 K	–	0.529 kPa
[1], 362.53 K	–	0.5293 kPa and 0.5294 kPa and 0.5295 kPa
[2], 262.22 K	162.94	–
[2], 265 K	163.34	–
[2], 270 K	164.16	–
[2], 275 K	164.98	–
[2], 280 K	165.79	–
[2], 285 K	166.61	–
[2], 290 K	167.53	–
[2], 295 K	168.45	–
[2], 300 K	169.37	–
[2], 305 K	170.29	–
[2], 310 K	171.2	–
[2], 315 K	172.23	–
[2], 320 K	173.14	–
[2], 325 K	174.17	–
[2], 330 K	175.19	–
[2], 335 K	176.11	–
[2], 340 K	177.13	–
[2], 345 K	178.15	–
[2], 350 K	179.17	–
[2], 355 K	180.09	–
[2], 357.99 K	180.7	–

O=C1OCCO1 [ethylene carbonate]
Conditions	Molar enthalpy of transition or fusion [kJ/mol]
[3]	13.5

Conditions	molar heat capacity at constant pressure [J/K/mol]	vapor or sublimation pressure
[1], 272.67 K, Crystal	–	0.00025 kPa
[1], 272.74 K, Crystal	–	0.00026 kPa
[1], 272.8 K, Crystal	–	0.00025 kPa
[1], 272.88 K, Crystal	–	0.00025 kPa
[1], 278.16 K, Crystal	–	0.00051 kPa and 0.00049 kPa
[1], 278.17 K, Crystal	–	0.00049 kPa
[1], 283.05 K, Crystal	–	0.00087 kPa and 0.00088 kPa and 0.00086 kPa
[1], 288.1 K, Crystal	–	0.00154 kPa and 0.00152 kPa and 0.00151 kPa
[1], 292.98 K, Metastable liquid	–	0.0034 kPa and 0.00338 kPa
[1], 293 K, Metastable liquid	–	0.00341 kPa
[1], 293.01 K, Crystal	–	0.00258 kPa and 0.00256 kPa
[1], 293.02 K, Crystal	–	0.00254 kPa and 0.00256 kPa
[1], 297.98 K, Crystal	–	0.00431 kPa and 0.0043 kPa
[1], 297.99 K, Crystal	–	0.00431 kPa
[1], 297.99 K, Metastable liquid	–	0.00518 kPa and 0.0052 kPa and 0.00521 kPa
[1], 298 K, Metastable liquid	–	0.0052 kPa
[1], 302.82 K, Crystal	–	0.00702 kPa and 0.00697 kPa
[1], 302.83 K, Crystal	–	0.00701 kPa
[1], 302.92 K, Metastable liquid	–	0.0078 kPa and 0.00783 kPa
[1], 307.84 K, Crystal	–	0.01131 kPa
[1], 307.84 K, Metastable liquid	–	0.01153 kPa and 0.01158 kPa and 0.01159 kPa
[1], 307.85 K, Crystal	–	0.01133 kPa and 0.0113 kPa
[1], 307.85 K, Metastable liquid	–	0.01159 kPa
[1], 312.82 K, Liquid	–	0.01692 kPa and 0.01693 kPa
[1], 312.83 K, Liquid	–	0.01694 kPa
[1], 317.76 K, Liquid	–	0.02435 kPa
[1], 317.77 K, Liquid	–	0.02435 kPa and 0.02433 kPa
[1], 322.65 K, Liquid	–	0.03439 kPa and 0.03437 kPa
[1], 322.66 K, Liquid	–	0.03443 kPa
[1], 327.75 K, Liquid	–	0.04874 kPa and 0.04875 kPa
[1], 327.76 K, Liquid	–	0.04872 kPa
[1], 327.77 K, Liquid	–	0.04878 kPa
[1], 332.8 K, Liquid	–	0.06796 kPa and 0.06798 kPa and 0.06797 kPa
[1], 337.66 K, Liquid	–	0.09261 kPa
[1], 337.67 K, Liquid	–	0.09259 kPa and 0.09267 kPa
[1], 337.68 K, Liquid	–	0.09275 kPa
[1], 342.68 K, Liquid	–	0.126 kPa
[1], 342.69 K, Liquid	–	0.1261 kPa and 0.1262 kPa
[1], 342.7 K, Liquid	–	0.1262 kPa
[1], 347.63 K, Liquid	–	0.1694 kPa
[1], 347.65 K, Liquid	–	0.1695 kPa
[1], 347.66 K, Liquid	–	0.1696 kPa
[1], 352.45 K, Liquid	–	0.2235 kPa
[1], 352.46 K, Liquid	–	0.2236 kPa
[1], 352.47 K, Liquid	–	0.2238 kPa
[1], 352.49 K, Liquid	–	0.2241 kPa
[1], 357.49 K, Liquid	–	0.296 kPa
[1], 357.5 K, Liquid	–	0.2961 kPa and 0.2962 kPa and 0.2963 kPa
[1], 362.62 K, Liquid	–	0.3906 kPa
[1], 362.63 K, Liquid	–	0.3906 kPa and 0.3907 kPa
[2], 262.19 K, Crystal	101.89	–
[2], 264 K, Crystal	102.85	–
[2], 266 K, Crystal	104	–
[2], 268 K, Crystal	105.06	–
[2], 270 K, Crystal	106.2	–
[2], 272 K, Crystal	107.35	–
[2], 274 K, Crystal	108.49	–
[2], 276 K, Crystal	109.72	–
[2], 278 K, Crystal	110.87	–
[2], 280 K, Crystal	112.1	–
[2], 282 K, Crystal	113.33	–
[2], 284 K, Crystal	114.57	–
[2], 286 K, Crystal	115.8	–
[2], 288 K, Crystal	117.03	–
[2], 290 K, Crystal	118.26	–
[2], 292 K, Crystal	119.59	–
[2], 294 K, Crystal	120.91	–
[2], 295.68 K, Crystal	121.96	–
[2], 316.43 K, Liquid	139.49	–
[2], 317 K, Liquid	139.58	–
[2], 318 K, Liquid	139.75	–
[2], 319 K, Liquid	139.84	–
[2], 320 K, Liquid	140.02	–
[2], 321 K, Liquid	140.1	–
[2], 322 K, Liquid	140.28	–
[2], 323 K, Liquid	140.37	–
[2], 323.6 K, Liquid	140.46	–

Conditions	Normal melting temperature [°C]
[1], Crystal	35.98

CC1CCC(=O)O1 (stereo not given) [γ-valerolactone]
Conditions	Molar enthalpy of transition or fusion [kJ/mol]
[3]	7.1

Liquid
Conditions	molar heat capacity at constant pressure [J/K/mol]	vapor or sublimation pressure
[1], 238.07 K	–	0.00014 kPa
[1], 238.08 K	–	0.00015 kPa
[1], 238.09 K	–	0.00015 kPa
[1], 243.06 K	–	0.00026 kPa
[1], 243.07 K	–	0.00026 kPa
[1], 248.13 K	–	0.00048 kPa
[1], 253.14 K	–	0.00082 kPa
[1], 258.15 K	–	0.00138 kPa
[1], 263.14 K	–	0.00228 kPa
[1], 268.14 K	–	0.00369 kPa
[1], 273.14 K	–	0.00586 kPa
[1], 273.15 K	–	0.00586 kPa
[1], 273.63 K	–	0.00612 kPa
[1], 273.64 K	–	0.00612 kPa
[1], 278.14 K	–	0.00912 kPa
[1], 283.14 K	–	0.01396 kPa and 0.01395 kPa
[1], 288.14 K	–	0.02098 kPa and 0.02097 kPa
[1], 288.15 K	–	0.021 kPa
[1], 293.13 K	–	0.03106 kPa
[1], 293.14 K	–	0.03111 kPa and 0.03109 kPa
[1], 298.14 K	–	0.04532 kPa and 0.04531 kPa
[1], 303.13 K	–	0.06501 kPa and 0.06502 kPa
[1], 308.14 K	–	0.09212 kPa and 0.09211 kPa
[2], 265.37 K	167.7	–
[2], 270 K	168.6	–
[2], 275 K	169.6	–
[2], 280 K	170.7	–
[2], 285 K	171.81	–
[2], 290 K	172.91	–
[2], 295 K	174.11	–
[2], 300 K	175.31	–
[2], 305 K	176.61	–
[2], 310 K	177.81	–
[2], 315 K	179.11	–
[2], 320 K	180.42	–
[2], 325 K	181.72	–
[2], 330 K	183.02	–
[2], 335 K	184.22	–
[2], 340 K	185.52	–
[2], 345 K	186.72	–
[2], 350 K	187.93	–
[2], 355 K	189.13	–
[2], 358.5 K	189.93	–

Conditions	Normal melting temperature [°C]
[1], Crystal	-34.81
